Read-outs that look alike come from different tables or passages of the source.
Key:
[1] = biological target: T1, wild-type Smo (Homo sapiens, UniProt Q99835); assay: [3H]-cyclopamine competitive binding, wild-type Smo; conditions: 25 nM [3H]-cyclopamine; for displacement of [3H]-cyclopamine from wild-type Smo: U2OS cells overexpressing wild-type Smo; for Ki: fixed U2OS cells overexpressing wild-type Smo, mean±SEM, read-out: Ki, displacement of [3H]-cyclopamine from Smo
T1 construct: expressed in transfected cells; host or cells: U2OS
T1 sequence (Q99835 28-787): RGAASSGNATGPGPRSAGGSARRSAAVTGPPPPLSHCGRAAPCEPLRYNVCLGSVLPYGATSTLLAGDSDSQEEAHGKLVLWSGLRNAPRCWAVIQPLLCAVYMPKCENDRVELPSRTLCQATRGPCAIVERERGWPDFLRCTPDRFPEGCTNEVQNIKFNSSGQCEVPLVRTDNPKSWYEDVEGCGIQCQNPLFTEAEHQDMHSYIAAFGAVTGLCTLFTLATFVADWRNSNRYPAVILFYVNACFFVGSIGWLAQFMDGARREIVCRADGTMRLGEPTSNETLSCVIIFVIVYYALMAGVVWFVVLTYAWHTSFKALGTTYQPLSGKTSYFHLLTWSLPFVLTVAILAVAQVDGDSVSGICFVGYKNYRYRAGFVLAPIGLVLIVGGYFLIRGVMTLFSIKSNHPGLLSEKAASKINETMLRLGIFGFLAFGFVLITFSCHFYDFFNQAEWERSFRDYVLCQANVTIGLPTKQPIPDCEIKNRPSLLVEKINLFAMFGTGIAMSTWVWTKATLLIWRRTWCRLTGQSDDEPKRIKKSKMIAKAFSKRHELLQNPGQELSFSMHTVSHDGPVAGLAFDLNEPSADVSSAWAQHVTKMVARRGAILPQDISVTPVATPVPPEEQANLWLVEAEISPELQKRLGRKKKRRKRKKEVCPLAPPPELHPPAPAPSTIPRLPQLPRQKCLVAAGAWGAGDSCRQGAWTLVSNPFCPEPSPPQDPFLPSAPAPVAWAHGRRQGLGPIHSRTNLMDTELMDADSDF
Method: (§1) FIG. 3. […] The displacement data were analyzed by fitting to a one-site competition curve using Graphpad Prism. Data were acquired in triplicates from three independent experiments and are presented as the mean±SEM.
(§2) For competitive binding assays, U2OS cells overexpressing wild-type Smo or Smo-D473H mutant receptors were grown in 24-well plates and fixed with 4% (v/v) formaldehyde/PBS for 20 min at room temperature (RT).

[2] = biological target: T2, Smo-D473H (Homo sapiens, UniProt Q99835, D473H); assay: [3H]-cyclopamine competitive binding, Smo-D473H mutant; conditions: for competition for binding / displacement of [3H]-cyclopamine from Smo-D473H: U2OS cells overexpressing Smo-D473H
T2 construct: expressed in transfected cells; host or cells: U2OS
T2 sequence (Q99835 28-787 D473H): as the sequence (Q99835 28-787) above, with D446H counted along it
Method: as §1, §2

[3] = tested on: cerebellar granular cell precursor (GCP) cells; assay: GCP cell proliferation ([3H]-thymidine incorporation); type: cell-based, mouse; conditions: read-out: IC50, inhibition of GCP proliferation
Method: FIG. 4. Compound A8 inhibits Gli-reporter activity and GCP proliferation. […] Cells were then exposed to [3H]-thymidine for 16 h and [3H]-thymidine incorporation was measured. Data were fit using Graphpad Prism (mean±SEM, n=3).
Primary neuronal granular cell precursor (GCP) cells were obtained from the cerebellum of 7-day postnatal C57BL/6 mice and labeled with [3H]-thymidine. Proliferation assays were performed as previously described28.

[4] = tested on: Hh-induced hair growth; assay: Hair regrowth after depilation, topical treatment; type: in vivo, mouse; conditions: C57BL/6 female mice, 0.5 mM, 30 μl topically daily for two weeks
Method: Eight-week-old C57BL/6 female mice were shaved on the dorsal surface and depilated with Nair® (Carter-Wallace, New York, N.Y.). Briefly, the bottom half of the shaved area was treated with Nair for 2 min, and the depilated area rinsed with water to remove residual Nair. Compound A8 was dissolved in a vehicle of 95% acetone/5% DMSO at a concentration of 0.5 mM, and 30 μl of A8 solution or the vehicle were applied topically to the depilated area of mice daily for two weeks. Mice were anesthetized briefly using 3% isoflurane anesthetic inhalant during all procedures. Five mice were included in each treatment group. All animals were treated in accordance with protocols approved by Institutional Animal Care and Use Committee at Duke University.
Hedgehog signaling plays a key role in regulating hair follicle growth40. To determine the efficacy of the novel Smo inhibitor A8 in suppressing Hh signaling in vivo, we used a model of hedgehog inhibition that examines inhibition of hair-growth41-43. Eight-week old Female C57BL mice in telogen phase of the hair cycle were used in these experiments44. Chemical depilation with Nair® induces anagen phase and regrowth of hair by activating the Hh signaling pathway. In our experiments, most of the hair on the back of vehicle treated mice grew back 2 weeks after removal with Nair (data not shown).

[5] = Storage of the active impurity in solution, activity retained; type: physicochemical; conditions: room temperature, DMSO or methanolic solution, 1 week
Source text: Subsequent characterization of this impurity by high-resolution mass spectrometry (HRMS) and by extensive NMR analysis allowed assignment of structure to the impurity as shown for Compound A8 (FIG. 2A). Confirmation of the structural assignment was achieved by synthesis of authentic material using the route described in FIG. 2B. Synthesized material matched the isolated material from the library sample by extensive NMR analysis, HRMS, TLC and HPLC.

[6] = tested on: Shh-induced Gli reporter activity; assay: Gli-luciferase reporter assay in Shh-LIGHT2 cells; type: cell-based
Method: FIG. 4. […] Cells were then exposed to [3H]-thymidine for 16 h and [3H]-thymidine incorporation was measured. Data were fit using Graphpad Prism (mean±SEM, n=3).
The Gli-luciferase assay was conducted in Shh-LIGHT2 cells, a clonal NIH3T3 cell line stably incorporating Gli-dependent firefly luciferase and constitutive Renilla luciferase reporters35. Cells were treated with purified Sonic Hedgehog protein (50 ng/mL) together with the corresponding compounds for 2 days. The reporter activity was determined by using the Dual-Luciferase Reporter Assay System (Promega).

[7] = biological target: T3, Smo-633 (Homo sapiens, UniProt Q99835); assay: Smo/βarr2-GFP translocation high-throughput imaging assay (antagonist mode); type: cell-based; conditions: for inhibition of intracellular βarr2-GFP aggregation: U2OS cells with Smo-633 and βarr2-GFP, 5 μM
T3 construct: expressed in transfected cells
T3 sequence (Q99835 with tags, fused parts or gaps limits assumed): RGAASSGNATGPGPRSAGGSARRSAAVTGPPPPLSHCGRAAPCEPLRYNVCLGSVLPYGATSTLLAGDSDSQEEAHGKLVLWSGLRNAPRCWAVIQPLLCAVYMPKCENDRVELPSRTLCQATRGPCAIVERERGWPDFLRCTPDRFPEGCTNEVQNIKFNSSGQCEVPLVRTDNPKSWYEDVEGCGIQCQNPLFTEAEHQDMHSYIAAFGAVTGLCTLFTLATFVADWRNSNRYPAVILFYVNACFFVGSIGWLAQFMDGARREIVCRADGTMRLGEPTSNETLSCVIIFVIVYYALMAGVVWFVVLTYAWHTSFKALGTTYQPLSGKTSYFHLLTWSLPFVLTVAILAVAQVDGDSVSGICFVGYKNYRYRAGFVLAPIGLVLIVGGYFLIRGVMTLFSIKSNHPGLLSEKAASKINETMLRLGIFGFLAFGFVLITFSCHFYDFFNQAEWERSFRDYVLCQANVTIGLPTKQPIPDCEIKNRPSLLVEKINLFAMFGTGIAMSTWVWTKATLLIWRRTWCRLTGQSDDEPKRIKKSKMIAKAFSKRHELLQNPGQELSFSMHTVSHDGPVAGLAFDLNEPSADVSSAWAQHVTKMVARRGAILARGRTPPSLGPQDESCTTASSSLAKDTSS
Source text: U2OS cells stably expressing a chimera Smo-633 receptor and βarr2-GFP were used in HTS screening.
To identify novel Smo inhibitors, we screened chemical libraries using our confocal imaging, cell-based platform assay as the primary high-throughput screening assay. […] Thus, small molecule inhibitors of Smo are identified by the loss of the punctate pattern.
To control for receptor specificity and to rule-out non-specific mechanisms, hits were cross-screened in the same assay format using the vasopressin2 receptor (V2R), a different seven-transmembrane receptor. In this control assay, cells transfected with V2R and βarr2-GFP are stimulated with the agonist arginine vasopressin. […] This control assay helps ensure the mechanism of inhibition is Smo receptor specific and allows molecules with non-specific mechanisms of inhibition to be ruled-out.

[8] = biological target: T4, vasopressin2 receptor (V2R) (Homo sapiens, UniProt P30518); conditions: cells transfected with V2R and βarr2-GFP, arginine vasopressin stimulated; cited from earlier work
T4 construct: expressed in transfected cells
T4 sequence (P30518 whole entry, species assumed): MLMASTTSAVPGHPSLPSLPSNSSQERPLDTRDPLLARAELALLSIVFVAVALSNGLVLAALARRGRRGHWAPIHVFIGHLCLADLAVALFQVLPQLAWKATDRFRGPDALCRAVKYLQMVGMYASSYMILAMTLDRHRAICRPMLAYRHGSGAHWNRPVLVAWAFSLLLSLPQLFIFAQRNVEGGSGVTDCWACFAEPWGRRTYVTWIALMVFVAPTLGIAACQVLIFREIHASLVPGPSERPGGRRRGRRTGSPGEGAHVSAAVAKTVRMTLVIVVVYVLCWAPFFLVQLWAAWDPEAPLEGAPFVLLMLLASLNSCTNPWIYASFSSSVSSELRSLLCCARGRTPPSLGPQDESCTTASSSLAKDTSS

[9] = mouse GCP cells, 48 hours with Shh, then [3H]-thymidine 16 h, mean±SEM, n=3

Compound	displacement of [3H]-cyclopamine from wild-type Smo [1]	Ki [1] [nM]	competition for binding / displacement of [3H]-cyclopamine from Smo-D473H [2]	IC50 [3, 9] [nM]	inhibition of intracellular βarr2-GFP aggregation [7]	further results
Cc1c(C(=O)Nc2ccc(N3C[C@@H](C)O[C@@H](C)C3)nc2)cccc1-c1ccc(OC(F)(F)F)cc1 [LDE-225]	completely displaced	6 ± 1.4	largely ineffective			
CS(=O)(=O)c1ccc(C(=O)Nc2ccc(Cl)c(-c3ccccn3)c2)c(Cl)c1 [GDC-0449]	completely displaced		largely ineffective	16.4 ± 2.5		displacement of [3H]-cyclopamine from Smo-D473H at high concentration ([2]; 10 μM compound): only partially displaced
O=C(NC1CCN(Cc2ccc(N3CCC(NC(=O)c4cccc(-c5cccnc5)c4)CC3)nc2)CC1)c1cccc(-c2cccnc2)c1 [Compound A8]	completely displaced	37.9 ± 3.7	completely displace	16.6 ± 2.3	activity of the synthesized material was confirmed	Hh-induced hair growth [4]: largely inhibited; activity after storage in solution [5]: retained activity; Ki ([2]; fixed U2OS cells overexpressing Smo-D473H, 25 nM [3H]-cyclopamine, mean±SEM, read-out: Ki, displacement of [3H]-cyclopamine from Smo-D473H receptors): 478 ± 123 nM; IC50 ([6]; Shh-LIGHT2 cells, Sonic Hedgehog 50 ng/mL, mean±SEM, n=3, read-out: IC50, inhibition of Shh-induced Gli reporter activity): 2.6 ± 0.4 nM
CCN(C)Cc1ccc(N2CCC(NC(=O)c3cccc(-c4cccnc4)c3)CC2)nc1 [Tripos 3910]						Smo antagonist activity of resynthesized sample compared to previous test samples ([7]; material synthesized at Duke, assay not specified): substantially reduced Smo antagonist activity
CC1=C2C[C@H]3[C@@H](CC=C4C[C@@H](O)CC[C@@]43C)[C@@H]2CC[C@]12O[C@@H]1C[C@H](C)CN[C@H]1[C@H]2C [cyclopamine]	completely displaced		completely displace		inhibits the aggregation of βarr2-GFP	inhibition of aggregation of V2R and βarr2-GFP [8]: not inhibited; IC50 ([3]; Mus musculus): 414 ± 73 nM; inhibition of the Gli-reporter activity ([6]; 1 μM concentration): strong inhibition

— patent publication US9512106B2, “Smoothened modulators and methods of use thereof” (Duke University, priority 2012, dated 2016)
